In brackets after ≈: the same amount, converted by molar mass. Counter-ions that a name gives are not always drawn. Like-named read-outs stand apart in the source and are kept apart here.
Tests used:
[1] = molecular target: HIV pol protease (Human immunodeficiency virus type 1 group M subtype B, UniProt P03366); test: Assay of the inhibition of HIV pol protease (synthetic substrate TE-2, HPLC of TE-3)
Method: The Ki, that is the dissociation constant of the enzyme-inhibitor complex, measured according to the equation [formula]
A reaction mixture containing 1 mM or 1.5 mM of the substrate TE-2, having the structure described in European Patent Publication No. 498,680, 1 μl of the desired concentration of the compound to be tested (dissolved in dimethyl sulfoxide comprising 20% v/v water), 2 μl of the enzyme solution prepared as described in step (c), above, and buffer solution [50 mM tris HCl (pH 6.0), 0.25M sodium chloride, 0.1 mM ethylenediaminetetraacetic acid, 0.1 mM Triton X-100] to form 10 μl in total, was incubated for 30 minutes at 37° C.
The reaction was Stopped by the addition of 250 μl of a 0.1% w/v solution of aqueous trifluoroacetic acid and 10% v/v acetonitrile. The reaction mixture was then subjected to Sep-pak light™ chromatography (Waters Co., Milford, Mass., USA), and the fractions passing through the column were collected.
The substrate TE-2 is decomposed by the HIV protease to form a shortened peptide of four amino acids, (TE-3; having the structure described in European Patent Publication No. 498,680). The amount of TE-3 formed was assayed quantitatively using a high performance liquid chromatography (HPLC) column [ODS-120T (Trade Mark), 4.6 mm in inner diameter ×250 mm, To-So Co.] using a mixture of 9% acetonitrile-0.05% trifluoroacetic acid as the eluting solvent.
The Ki in nM was calculated according to the method of Michaelis-Menten using the equation given above.

[2] = test system: Molt 4/HTLV IIIB; test: Inhibition of the release of virus from Molt 4 cells chronically infected with HIV; format: cell-based, HIV (HTLVIIIB)
Method: Inhibition of the Release of Virus from Molt 4 Cells Chronically Infected with HIV (Molt 4/HTLV IIIB)
A Molt 4 cell line chronically infected with HIV, that is with HTLVIIIB, was established (Molt 4/HTLVIIIB). The cells were washed twice with growth medium (RPMI-1640 medium containing 10% v/v heat-inactivated fetal calf serum). The washed cells were then inoculated into growth medium at a density of 2×10^5 cells/ml, in the presence of selected concentrations of test compounds, at 37° C., and cultured under an atmosphere of 5% carbon dioxide.
After 48 hours, the test cultures were spun down at 1000×g for 3 minutes, and the supernatant was collected. Polyethylene glycol 6000 was added to the supernatant to a final concentration of 10% w/v, and the resulting solution was left to stand for 6 hours on ice. Virions precipitated by this procedure were subsequently obtained as a pellet by centrifuging the treated supernatants for 30 minutes at 10000×g. The amount of HIV antigen in the pellets was then determined using a commercial enzyme immunoassay (EIA) system [HIV antigen EIA kit, available from Abbot].
IC50 (the minimum concentration of test compound sufficient to reduce the amount of HIV antigen production by 50%, as determined by the EIA system) was used as a measure of anti-HIV activity.

SMILES	Ki [1] [nM]	other results
CC(C)(C)NC(=O)[C@@H]1CCCN1C(=O)[C@@H](O)[C@H](Cc1ccccc1)NC(=O)[C@H](CC(N)=O)NC(=O)COc1ccc(NC(=O)CN)cc1 [Example 18, 1-[(2S,3S)-3-{N^2-[4-(Glycylamino)phenoxyacetyl]-L-asparaginyl}amino-2-hydroxy-4-phenylbutyryl]-N-t-butyl-L-prolinamide hydrochloride]	30	–
CC(C)(C)NC(=O)[C@@H]1CCCN1C(=O)[C@@H](O)[C@H](Cc1ccccc1)NC(=O)[C@H](CC(N)=O)NC(=O)COc1ccc(N)cc1 [Example 17, 1-{(2S,3S)-3-[N^2-(4-Aminophenoxyacetyl)-L-asparaginyl)amino-2-hydroxy-4-phenylbutyryl]-N-t-butyl-L-prolinamide hydrochloride]	18.5	–
CN(C)c1ccc(OCC(=O)N[C@@H](CC(N)=O)C(=O)N[C@@H](Cc2ccccc2)[C@H](O)C(=O)N2CCC[C@H]2C(=O)NC(C)(C)C)cc1 [Example 21, 1-[(2S,3S)-3-{N^2-[4-(N,N-Dimethylamino)phenoxyacetyl]-L-asparaginyl}amino-2-hydroxy-4-phenylbutyryl]-N-t-butyl-L-prolinamide]	37	–
CC(C)(C)NC(=O)[C@@H]1C[C@H](Cl)CN1C(=O)[C@@H](O)[C@H](Cc1ccccc1)NC(=O)[C@H](CC(N)=O)NC(=O)c1cnc2ccccc2n1 [Example 14, (4S)-1-{(2S,3S)-3-[N^2-(2-Quinoxalinecarbonyl)-L-asparaginyl]amino-2-hydroxy-4-phenylbutyryl}-N-t-butyl-4-chloro-L-prolinamide]	4.7	IC50 ([2]; Human immunodeficiency virus 1, IIIB, MOLT-4, 48 h, read-out: IC50 (concentration reducing HIV antigen production by 50%)): 0.39 µg/mL (≈ 0.598 µM)
CC(C)(C)NC(=O)[C@@H]1C[C@@H]2CCCC[C@@H]2CN1C[C@@H](O)[C@H](Cc1ccccc1)NC(=O)[C@H](CC(N)=O)NC(=O)c1ccc2ccccc2n1 [Ro31-8959, 3-t-butylaminocarbonyl-2-{(2R, 3S)-3-[(N-2'-quinolinecarbonyl-L-asparaginyl)amino]-2-hydroxy-4-phenylbutyl}-(3S, 4aS, 8aS)-decahydroisoquinoline, reference compound]	–	IC50 (concentration reducing HIV antigen production by 50%) ([2]; Molt 4/HTLVIIIB cells, 48 hours, HIV antigen in precipitated virions by EIA): > 20.0 µg/mL; Ki ([1]; 1 mM or 1.5 mM substrate TE-2, pH 6.0, 30 minutes at 37° C., calculated by Michaelis-Menten): 58 nM
CNc1ccc(OCC(=O)N[C@@H](CC(N)=O)C(=O)N[C@@H](Cc2ccccc2)[C@H](O)C(=O)N2CCC[C@H]2C(=O)NC(C)(C)C)cc1 [Example 20, 1-[(2S,3S)-3-{N^2-[4-(Methylamino)phenoxyacetyl]-L-asparaginyl}amino-2-hydroxy-4-phenylbutyryl]-N-t-butyl-L-prolinamide hydrochloride]	49	–
CC(C)(C)NC(=O)[C@@H]1C[C@H](Cl)CN1C(=O)[C@@H](O)[C@H](Cc1ccccc1)NC(=O)[C@H](CC(N)=O)NC(=O)OCc1ccccc1 [Example 1, (4S)-1-[(2S,3S)-3-(N^2 -Benzyloxycarbonyl-L-asparaginyl)amino-2-hydroxy-4-phenylbutyryl]-N-t-butyl-4-chloro-L-prolinamide]	8	–
CC(C)(C)NC(=O)[C@@H]1C[C@@H](O)CN1C(=O)[C@@H](O)[C@H](Cc1ccccc1)NC(=O)[C@H](CC(N)=O)NC(=O)OCc1ccccc1 [Example 4, (4R)-1-[(2S,3S)-3-(N^2 -Benzyloxycarbonyl-L-asparaginyl)amino-2-hydroxy-4-phenylbutyryl]-N-t-butyl-4-hydroxy-L-prolinamide]	56	–
CC(C)(C)NC(=O)[C@@H]1CCCN1C(=O)[C@@H](O)[C@H](Cc1ccccc1)NC(=O)[C@H](CC(N)=O)NC(=O)COc1ccc(NC(=O)OCc2ccccc2)cc1 [Example 16, 1-[(2S,3S)-3-{N^2-[4-(Benzyloxycarbonylamino)phenoxyacetyl]-L-asparaginyl}amino-2-hydroxy-4-phenylbutyryl]-N-t-butyl-L-prolinamide]	14	–

Source: patent US5629406A, “Inhibitors of HIV protease” (Sankyo Company, Limited, priority 1992, dated 1997)
